pEC50: −log10 of the molar value.
Key:
cFos mRNA = cFos mRNA induction in cortex of wild-type mice (quantitative PCR); assay type: in vivo, C57BL/6J male mice; conditions: one hour after administration
Method: Compound administration and brain tissue collection.
Quantification of cFos mRNA induction. Tissue homogenization was performed using TissueLyser system for 96 well plates (Qiagen). First, frozen cortical samples were thawed, removed from RNAlater, and placed into TissueLyser tubes along with Buffer RLT containing 0.5% Reagent DX and one 5 mm TissueLyser metal bead. The TissueLyser tubes were loaded into a TissueLyser II tissue homogenizer for 3 rounds of homogenization, with each round lasting 5 minutes at 30 Hz bead-beating frequency. Total RNA was purified from the homogenate using RNeasy 96 Plus kit (Qiagen), RNA concentration and A260/A280 ratio were quantified via the Nanodrop (ThermoFisher), and all samples were normalized to 100 ng/μl concentration. RNA was reverse transcribed into cDNA using the Superscript III First-strand synthesis SuperMix Kit (ThermoFisher). For each sample, 6 μl of RNA (600 ng total) was mixed with 1 μL of Oligo dT and 1 μL of annealing buffer and heated to 65° C. for 5 minutes. Next, 10 μL of 2× First-Strand Reaction Mix and 2 μL of the Enzyme mix were added to achieve a total reaction volume of 20 μL. The samples were heated to 50° C. for 50 minutes then 85° C. for 5 minutes to complete cDNA synthesis.
Quantitative PCR was performed on the cDNA samples using Quantitect Multiplex RT-PCR kit (Qiagen) in a 384-well assay format. Each PCR well contained 2 μL of cDNA (60 ng total), 10 μL of RT-PCR mastermix, 1 μL of cFos FAM Taqman probe (Mm00487425_m1 (FAM) #4351368), 1 μL of GAPDH VIC Taqman probe (Mm99999915-g1 (VIC) #4448486), 0.2 μL of Multiplex RT mix and 5.8 μl of RNase-free water. On the ViiA7 Real-Time PCR system (ThermoFisher), the samples were heated to 95° C. for 15 minutes then cycled between 94° C. for 45 seconds and 60° C. for 45 seconds for 45 cycles. cFos Ct values were exported, normalized to GAPDH Ct values, and converted to relative fold change in expression using the delta-delta Ct relative quantification method. cFos fold changes between compound treatments and vehicle were analyzed by one-way ANOVA, followed by Tukey's post-hoc comparisons.

[1] = Compound exposure in wild-type mice (cerebellum and blood, mass spectrometry); conditions: male, C57BL/6J, mouse, brain (cerebellum) and whole blood
Method: Compound administration and brain tissue collection. Wild-type C57BL/6J male mice were obtained from Jackson laboratories (Bar Harbor, Me.). The acute, single-dose effects of Cav1.2 activators of the present disclosure were evaluated in male eight-week old mice (n=6 mice per compound). Each compound was dissolved in 10% PEG300, 10% Solutol, 10% Cremophore EL, and 70% Phosphate Buffered Saline and administered intraperitoneal (i.p.) at a concentration of 1 mg/kg up to 30 mg/kg depending on the compound. Animals were euthanized one hour after compound administration via exsanguination under deep anesthesia. Blood was collected in EDTA tubes for downstream analysis of drug levels. Brains were rapidly removed from the skull, and the cerebral cortex and cerebellum were regionally dissected. Cerebellar samples were snap frozen in liquid nitrogen to assess compound exposure.
Quantification of compound exposure. Cerebellar tissue samples were homogenized in 4 mL of 20% acetonitrile and 80% Phosphate buffered saline for every 1 g of tissue (5× dilution). Tissue was homogenized using either of the following three methods: hand held probe system, TissueLyser system with 5 mm steel bead at a frequency of 30 s^−1 for 4 min, or OMNI Bead Ruptor Elite homogenizer for 30 seconds to 1 minute depending on tissue type. Tissue samples were added to a 96-well plate (12.5 μL sample) and processed for quantification by mass spectrometry.

human Cav1.2 [2] = biological target: T1, human Cav1.2 (Homo sapiens, UniProt Q13936); experiment: Sophion QPatch whole-cell voltage clamp dose-response assay, Cav1.2-HEK293(AUX) cell line (barium currents); conditions: for QPatch Emax: maximal fold change of peak inward current
T1 sequence (Q13936 whole entry): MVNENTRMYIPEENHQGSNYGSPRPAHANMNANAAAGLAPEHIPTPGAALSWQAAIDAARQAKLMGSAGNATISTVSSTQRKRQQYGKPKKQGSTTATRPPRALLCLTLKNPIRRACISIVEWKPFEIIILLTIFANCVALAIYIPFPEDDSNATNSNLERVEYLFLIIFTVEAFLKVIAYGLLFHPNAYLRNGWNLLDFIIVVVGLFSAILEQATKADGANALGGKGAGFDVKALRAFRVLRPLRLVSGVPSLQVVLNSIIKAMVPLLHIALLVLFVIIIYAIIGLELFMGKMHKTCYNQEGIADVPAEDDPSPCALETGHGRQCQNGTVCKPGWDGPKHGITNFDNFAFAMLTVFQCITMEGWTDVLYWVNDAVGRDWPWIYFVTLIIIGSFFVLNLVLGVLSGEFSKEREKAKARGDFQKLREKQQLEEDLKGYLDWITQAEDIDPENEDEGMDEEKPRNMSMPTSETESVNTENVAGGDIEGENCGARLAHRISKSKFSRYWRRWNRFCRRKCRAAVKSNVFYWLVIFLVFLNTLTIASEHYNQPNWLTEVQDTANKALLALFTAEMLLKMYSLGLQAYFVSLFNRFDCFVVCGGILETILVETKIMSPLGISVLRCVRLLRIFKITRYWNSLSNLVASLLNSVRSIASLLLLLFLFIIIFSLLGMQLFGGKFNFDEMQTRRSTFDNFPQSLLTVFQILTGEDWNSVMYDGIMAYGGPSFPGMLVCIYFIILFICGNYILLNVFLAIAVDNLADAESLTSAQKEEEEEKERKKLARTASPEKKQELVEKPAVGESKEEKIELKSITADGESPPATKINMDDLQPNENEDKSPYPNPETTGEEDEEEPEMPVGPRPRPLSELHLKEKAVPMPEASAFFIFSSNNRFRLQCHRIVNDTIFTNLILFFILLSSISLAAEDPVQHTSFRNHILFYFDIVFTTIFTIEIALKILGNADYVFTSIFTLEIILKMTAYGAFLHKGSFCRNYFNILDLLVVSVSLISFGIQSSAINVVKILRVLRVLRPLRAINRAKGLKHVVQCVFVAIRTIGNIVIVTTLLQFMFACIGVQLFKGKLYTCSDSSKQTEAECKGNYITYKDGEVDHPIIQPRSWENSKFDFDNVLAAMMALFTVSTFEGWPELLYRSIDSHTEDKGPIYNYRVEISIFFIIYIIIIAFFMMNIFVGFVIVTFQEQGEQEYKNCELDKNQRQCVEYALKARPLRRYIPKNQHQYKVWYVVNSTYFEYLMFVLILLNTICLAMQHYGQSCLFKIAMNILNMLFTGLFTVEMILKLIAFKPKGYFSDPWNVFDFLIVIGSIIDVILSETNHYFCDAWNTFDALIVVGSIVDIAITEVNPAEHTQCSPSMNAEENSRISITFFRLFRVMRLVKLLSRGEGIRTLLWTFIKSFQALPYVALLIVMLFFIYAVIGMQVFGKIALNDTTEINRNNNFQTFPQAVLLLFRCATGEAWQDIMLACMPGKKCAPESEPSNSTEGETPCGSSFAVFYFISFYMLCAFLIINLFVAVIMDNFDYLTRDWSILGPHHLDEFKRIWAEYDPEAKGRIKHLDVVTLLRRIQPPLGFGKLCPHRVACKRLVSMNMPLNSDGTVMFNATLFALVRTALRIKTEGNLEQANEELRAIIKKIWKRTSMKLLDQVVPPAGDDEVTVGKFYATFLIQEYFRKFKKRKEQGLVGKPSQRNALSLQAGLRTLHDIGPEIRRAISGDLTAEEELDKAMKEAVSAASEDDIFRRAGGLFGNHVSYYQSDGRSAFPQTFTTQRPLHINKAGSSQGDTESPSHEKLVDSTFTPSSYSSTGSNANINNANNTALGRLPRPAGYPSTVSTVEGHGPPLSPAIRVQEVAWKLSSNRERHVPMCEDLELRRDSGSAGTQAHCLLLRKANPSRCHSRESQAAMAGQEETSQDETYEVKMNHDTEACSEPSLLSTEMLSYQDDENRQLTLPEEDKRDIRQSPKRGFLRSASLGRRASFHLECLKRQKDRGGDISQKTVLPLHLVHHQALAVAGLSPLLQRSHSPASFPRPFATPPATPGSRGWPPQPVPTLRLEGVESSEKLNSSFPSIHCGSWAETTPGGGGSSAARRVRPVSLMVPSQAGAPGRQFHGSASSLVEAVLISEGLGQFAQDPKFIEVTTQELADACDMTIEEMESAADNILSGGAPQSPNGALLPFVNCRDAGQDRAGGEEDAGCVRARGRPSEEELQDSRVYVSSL
T1 sequence (Q9NY47 19-1001 partner limits assumed): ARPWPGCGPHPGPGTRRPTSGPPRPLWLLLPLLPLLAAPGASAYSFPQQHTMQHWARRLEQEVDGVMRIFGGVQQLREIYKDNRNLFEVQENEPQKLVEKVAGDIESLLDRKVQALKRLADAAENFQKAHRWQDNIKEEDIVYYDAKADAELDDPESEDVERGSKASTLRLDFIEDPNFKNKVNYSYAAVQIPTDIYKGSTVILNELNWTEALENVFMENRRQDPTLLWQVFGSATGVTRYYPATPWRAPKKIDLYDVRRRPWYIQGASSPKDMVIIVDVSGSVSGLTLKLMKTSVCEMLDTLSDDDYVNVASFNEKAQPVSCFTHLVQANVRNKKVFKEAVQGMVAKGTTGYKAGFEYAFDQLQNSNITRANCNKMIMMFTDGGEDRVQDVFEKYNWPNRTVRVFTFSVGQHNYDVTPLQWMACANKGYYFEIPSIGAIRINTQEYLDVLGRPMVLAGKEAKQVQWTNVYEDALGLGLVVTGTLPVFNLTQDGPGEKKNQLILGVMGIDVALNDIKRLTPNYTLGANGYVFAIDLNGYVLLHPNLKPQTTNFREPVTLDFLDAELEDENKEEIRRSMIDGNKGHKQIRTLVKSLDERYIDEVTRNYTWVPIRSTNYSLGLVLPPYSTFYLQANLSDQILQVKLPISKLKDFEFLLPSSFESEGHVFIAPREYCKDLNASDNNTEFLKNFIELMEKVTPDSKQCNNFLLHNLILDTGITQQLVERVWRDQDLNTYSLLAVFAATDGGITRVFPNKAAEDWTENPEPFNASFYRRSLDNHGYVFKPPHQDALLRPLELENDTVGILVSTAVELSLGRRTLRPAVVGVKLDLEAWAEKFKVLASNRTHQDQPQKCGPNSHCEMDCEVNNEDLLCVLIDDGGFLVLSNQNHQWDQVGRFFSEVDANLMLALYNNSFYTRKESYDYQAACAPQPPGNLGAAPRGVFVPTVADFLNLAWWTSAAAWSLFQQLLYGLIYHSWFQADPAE
T1 sequence (Q9NY47 1002-1150 partner limits assumed): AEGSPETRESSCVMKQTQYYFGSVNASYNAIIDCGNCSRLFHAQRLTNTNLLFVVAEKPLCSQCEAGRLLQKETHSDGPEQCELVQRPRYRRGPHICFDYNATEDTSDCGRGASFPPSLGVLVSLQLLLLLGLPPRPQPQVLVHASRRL
T1 sequence (Q08289 whole entry partner): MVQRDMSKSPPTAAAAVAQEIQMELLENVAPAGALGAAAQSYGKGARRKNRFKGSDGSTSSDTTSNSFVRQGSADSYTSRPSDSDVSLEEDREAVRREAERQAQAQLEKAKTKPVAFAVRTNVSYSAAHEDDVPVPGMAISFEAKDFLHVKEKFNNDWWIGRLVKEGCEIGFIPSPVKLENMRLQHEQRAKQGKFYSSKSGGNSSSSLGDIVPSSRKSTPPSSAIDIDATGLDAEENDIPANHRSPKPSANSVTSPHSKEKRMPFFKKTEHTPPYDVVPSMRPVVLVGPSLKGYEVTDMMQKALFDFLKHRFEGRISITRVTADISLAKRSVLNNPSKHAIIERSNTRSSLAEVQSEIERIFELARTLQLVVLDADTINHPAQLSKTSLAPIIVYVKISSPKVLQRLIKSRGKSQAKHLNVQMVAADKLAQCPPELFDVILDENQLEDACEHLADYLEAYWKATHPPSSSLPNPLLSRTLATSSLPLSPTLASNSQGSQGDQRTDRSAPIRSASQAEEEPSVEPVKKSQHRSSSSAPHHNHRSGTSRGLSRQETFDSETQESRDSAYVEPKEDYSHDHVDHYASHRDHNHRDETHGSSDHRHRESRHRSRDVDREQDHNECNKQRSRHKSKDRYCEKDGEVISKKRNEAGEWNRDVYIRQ
Method: 24 hours prior an electrophysiology experiment, doxycycline (1 μg/ml) was added to the growth medium (Table 1), and 25 μM of verapamil was co-applied to prevent calcium influx triggered cell death. Cell confluency should reach 70%-80% right before the experiment.
To harvest cells (from a T175 cm^2 flask as an example), growth media were removed completely, and the cells were rinsed with 10 mL of D-PBS. D-PBS was aspirated, and 10 mL of Detachin (Genlantis) was added and the plate was placed in a 37° C. incubator for 10 minutes. Detached cells were placed into a 15 mL conical tube and spun at 1000 rpm for 2 minutes. Supernatant was removed, and cells were re-suspended in QPatch complete media (Table 2) to desired cell density of 1.5-3 million cells per QPatch run. Each experimental run uses 1.5 mL of cells.
The cells suspension was taken to the Sophion QPatch platform that uses whole-cell voltage clamp to measure barium currents conducted through Cav1.2 on single-hole QPlates. […] A dose-response assay protocol was used to determine the maximal fold change of peak inward current (Emax) and potency (EC50) of each compound. The protocol had eight liquid periods. The first liquid period was to stabilize current amplitude, which was monitored using repetitive 200-ms voltage pulses stepping from −80 mV to 0 mV. The second liquid period was to determine baseline current amplitude in the presence of vehicle control, using a single 20-ms voltage pulse stepping from −80 mV to 0 mV. The third through eighth liquid periods were used to ascertain a 6-dose response to compound treatments, also using single 20-ms voltage pulses stepping from −80 mV to 0 mV. The EC50 was generated using the following equation Iconcentration=Ibase+(Ifull−Ibase)*c^n/(XC50^n+c^n), where c is the concentration and n is the Hill coefficient constant. Ifull is the maximal current achievable, and Ibase is 0.

human Cav1.2 [3] = biological target: T1, human Cav1.2; experiment: QPatch channel biophysics assay (current-voltage relationship, V1/2, tau of inactivation), Cav1.2-HEK293(AUX) cell line; assay type: cell-based; set-up: expressed in transfected cells; host or cells: Flp-In 293 T-Rex (HEK293), clone 2-19B, stably transfected with pCMV6-entry-CACNA1C and pcDNA5H/FRT-TO-CACNA2D2-FCS-P2A-CACNB2
Method: Clonal isolation was achieved under Neomycin selection.
Each experimental run uses 1.5 mL of cells.
The protocol had eight liquid periods. […] The protocol had four liquid periods.

[4] = QPatch EC50, 6-point dose response, 20-ms pulses from −80 mV to 0 mV, n = 1 unless marked (* n = 2, # n = 3)
[5] = shift of half-way channel activation voltage (V1/2)
[6] = QPatch EC50, comparative examples, known CaV1.2 activators (Table 6)

COC(=O)C1=C(C)NC2=C(C(=O)OC2)[C@H]1c1cccc(F)c1[C@H]1CC1(F)F (single isomer, unassigned) [Example 1, Methyl (S)-4-(2-((R or S)-2,2-difluorocyclopropyl)-3-fluorophenyl)-2-methyl-5-oxo-1,4,5,7-tetrahydrofuro[3,4-b]pyridine-3-carboxylate]
% ↑cFOS mRNA cortex (3 mg/kg ip) (cFos mRNA): 169% | % ↑cFOS mRNA cortex (10 mg/kg ip) (cFos mRNA): 350% | Kp at 1 h ([1]; ip): 1.1 | pEC50 (human Cav1.2 [2]; [4]): 6.89 | QPatch Emax (human Cav1.2 [2]): 2.0 | Biophysics voltage shift (human Cav1.2 [3]; [5]): −4.5 mV

COC(=O)C1=C(C)NC2=C(C(=O)OC2)[C@H]1c1cccc(F)c1C1CCC1 (single isomer, unassigned) [Example 3]
pEC50 (human Cav1.2 [2]; [4]): 7.10 | QPatch Emax (human Cav1.2 [2]): 1.8 | Biophysics voltage shift (human Cav1.2 [3]; [5]): −6.6 mV

COC(=O)C1=C(C)NC2=C(C(=O)OC2)[C@H]1c1cccc(F)c1C1CC1 (single isomer, unassigned) [Example 4]
% ↑cFOS mRNA cortex (3 mg/kg ip) (cFos mRNA): 247% | % ↑cFOS mRNA cortex (10 mg/kg ip) (cFos mRNA): 398% | Kp at 1 h ([1]; ip): 1.2 | pEC50 (human Cav1.2 [2]; [4]): 6.96 | QPatch Emax (human Cav1.2 [2]): 2.1 | Biophysics voltage shift (human Cav1.2 [3]; [5]): −4.5 mV

COC(=O)C1=C(C)NC2=C(C(=O)OC2)[C@H]1c1cc(F)cc(F)c1[C@H]1CC1(F)F (single isomer, unassigned) [Example 5, Methyl (S)-4-(2-((R or S)-2,2-difluorocyclopropyl)-3,5-difluorophenyl)-2-methyl-5-oxo-1,4,5,7-tetrahydrofuro[3,4-b]pyridine-3-carboxylate]
pEC50 (human Cav1.2 [2]; [4]): 7.28 | QPatch Emax (human Cav1.2 [2]): 2.5 | Biophysics voltage shift (human Cav1.2 [3]; [5]): −7.2 mV

COC(=O)C1=C(C)NC2=C(C(=O)OC2)[C@H]1c1cc(F)cc(F)c1[C@H]1CC1(F)F (single isomer, unassigned) [Example 6, Methyl (S)-4-(2-((R or S)-2,2-difluorocyclopropyl)-3,5-difluorophenyl)-2-methyl-5-oxo-1,4,5,7-tetrahydrofuro[3,4-b]pyridine-3-carboxylate]
pEC50 (human Cav1.2 [2]; [4]): 7.09 | QPatch Emax (human Cav1.2 [2]): 2.6 | Biophysics voltage shift (human Cav1.2 [3]; [5]): −4.8 mV

COC(=O)C1=C(C)NC2=C(C(=O)OC2)[C@H]1c1cc(F)cc(F)c1[C@@H](C)F (single isomer, unassigned) [Example 7, Methyl (S)-4-(3,5-difluoro-2-((S or R)-1-fluoroethyl)phenyl)-2-methyl-5-oxo-1,4,5,7-tetrahydrofuro[3,4-b]pyridine-3-carboxylate]
% ↑cFOS mRNA cortex (3 mg/kg ip) (cFos mRNA): 158% | Kp at 1 h ([1]; ip): 1.7 | pEC50 (human Cav1.2 [2]; [4]): 7.52 | QPatch Emax (human Cav1.2 [2]): 1.7 | Biophysics voltage shift (human Cav1.2 [3]; [5]): −6.6 mV

COC(=O)C1=C(C)NC2=C(C(=O)OC2)[C@H]1c1cccc(F)c1C(C)(C)F (single isomer, unassigned) [Example 8]
pEC50 (human Cav1.2 [2]; [4]): 6.66 | QPatch Emax (human Cav1.2 [2]): 1.6

COC(=O)C1=C(C)NC2=C(C(=O)OC2)[C@H]1c1cccc(F)c1CC(F)(F)F (single isomer, unassigned) [Example 9]
% ↑cFOS mRNA cortex (3 mg/kg ip) (cFos mRNA): 112% | Kp at 1 h ([1]; ip): 2.3 | pEC50 (human Cav1.2 [2]; [4]): 6.89 | QPatch Emax (human Cav1.2 [2]): 1.5 | Biophysics voltage shift (human Cav1.2 [3]; [5]): −6.6 mV

COC(=O)C1=C(C)NC2=C(C(=O)OC2)[C@H]1c1cccc(F)c1[C@H](C)F (single isomer, unassigned) [Example 10, Methyl (S)-4-(3-fluoro-2-((S or R)-1-fluoroethyl)phenyl)-2-methyl-5-oxo-1,4,5,7-tetrahydrofuro[3,4-b]pyridine-3-carboxylate]
% ↑cFOS mRNA cortex (3 mg/kg ip) (cFos mRNA): 204% | Kp at 1 h ([1]; ip): 0.9 | pEC50 (human Cav1.2 [2]; [4]): 7.40 | QPatch Emax (human Cav1.2 [2]): 2.2

COC(=O)C1=C(C)NC2=C(C(=O)OC2)[C@H]1c1cccc(F)c1[C@@H](F)CF (single isomer, unassigned) [Example 11, Methyl (S)-4-(2-((R or S)-1,2-difluoroethyl)-3-fluorophenyl)-2-methyl-5-oxo-1,4,5,7-tetrahydrofuro[3,4-b]pyridine-3-carboxylate]
pEC50 (human Cav1.2 [2]; [4]): 7.40 | QPatch Emax (human Cav1.2 [2]): 1.4 | Biophysics voltage shift (human Cav1.2 [3]; [5]): −6.8 mV

CCc1c(F)cc(F)cc1[C@H]1C(C(=O)OC)=C(C)NC2=C1C(=O)OC2 (single isomer, unassigned) [Example 12]
% ↑cFOS mRNA cortex (3 mg/kg ip) (cFos mRNA): 128% | Kp at 1 h ([1]; ip): 0.8 | pEC50 (human Cav1.2 [2]; [4]): 6.96 | QPatch Emax (human Cav1.2 [2]): 1.4 | Biophysics voltage shift (human Cav1.2 [3]; [5]): −7.4 mV

CCc1c(F)cccc1[C@H]1C(C(=O)OC)=C(C)NC2=C1C(=O)OC2 (single isomer, unassigned) [Example 13]
% ↑cFOS mRNA cortex (3 mg/kg ip) (cFos mRNA): 165% | % ↑cFOS mRNA cortex (10 mg/kg ip) (cFos mRNA): 281% | Kp at 1 h ([1]; ip): 1 | pEC50 (human Cav1.2 [2]; [4]): 6.66 | QPatch Emax (human Cav1.2 [2]): 1.5 | Biophysics voltage shift (human Cav1.2 [3]; [5]): −4.8 mV

COC(=O)C1=C(C)NC2=C(C(=O)OC2)[C@H]1c1cc(F)cc(F)c1C1CC1 (single isomer, unassigned) [Example 14]
% ↑cFOS mRNA cortex (3 mg/kg ip) (cFos mRNA): 228% | % ↑cFOS mRNA cortex (10 mg/kg ip) (cFos mRNA): 364% | Kp at 1 h ([1]; ip): 1.7 | pEC50 (human Cav1.2 [2]; [4]): 7.19 | QPatch Emax (human Cav1.2 [2]): 1.8 | Biophysics voltage shift (human Cav1.2 [3]; [5]): −1.9 mV

COC(=O)C1=C(C)NC2=C(C(=O)OC2)[C@H]1c1cccc(F)c1C(C)C (single isomer, unassigned) [Example 15]
% ↑cFOS mRNA cortex (3 mg/kg ip) (cFos mRNA): 169% | Kp at 1 h ([1]; ip): 1.3 | pEC50 (human Cav1.2 [2]; [4]): 7.30 | QPatch Emax (human Cav1.2 [2]): 2 | Biophysics voltage shift (human Cav1.2 [3]; [5]): −6.6 mV

COC(=O)C1=C(C)NC2=C(C(=O)OC2)[C@H]1c1cc(F)cc(F)c1C(C)C (single isomer, unassigned) [Example 18]
pEC50 (human Cav1.2 [2]; [4]): 6.99 | QPatch Emax (human Cav1.2 [2]): 2.2 | Biophysics voltage shift (human Cav1.2 [3]; [5]): −6.5 mV

COC(=O)C1=C(C)NC2=C(C(=O)OC2)[C@H]1c1cccc(F)c1C1CC(F)C1 (single isomer, unassigned) [Example 20]
pEC50 (human Cav1.2 [2]; [4]): 7.07 | QPatch Emax (human Cav1.2 [2]): 1.6 | Biophysics voltage shift (human Cav1.2 [3]; [5]): −6.1 mV

COC(=O)C1=C(C)NC(C)=C([N+](=O)[O-])[C@H]1c1ccccc1C(F)(F)F (single isomer, unassigned) [reference compound]
QPatch Emax (human Cav1.2 [2]; comparative examples (Table 6)): 3.9

CCOC(=O)C1=C(C)NC2=C(C(=O)OC2)[C@H]1c1ccccc1OCc1ccccc1 (single isomer, unassigned) [reference compound]
pEC50 (human Cav1.2 [2]; [6]): 6.35 | QPatch Emax (human Cav1.2 [2]; comparative examples (Table 6)): 4.3 | Biophysics voltage shift (human Cav1.2 [3]; comparative examples (Table 6)): −15.4 mV

CCOC(=O)C1=C(C)NC2=C(C(=O)OC2)[C@H]1c1ccccc1OC(F)F (single isomer, unassigned) [reference compound]
Kp at 1 h ([1]; intraperitoneal): 0.23 | pEC50 (human Cav1.2 [2]; [6]): 6.55 | QPatch Emax (human Cav1.2 [2]; comparative examples (Table 6)): 2.2 | Biophysics voltage shift (human Cav1.2 [3]; comparative examples (Table 6)): −6.7 mV

COC(=O)C1=C(C)NC2=C(C(=O)OC2)C1c1ccccc1C (single isomer, unassigned) [reference compound]
pEC50 (human Cav1.2 [2]; [6]): 5.65 | QPatch Emax (human Cav1.2 [2]; comparative examples (Table 6)): 1.4

COC(=O)C1=C(C)NC2=C(C(=O)OC2)C1c1ccccc1C(F)(F)F (single isomer, unassigned) [reference compound]
pEC50 (human Cav1.2 [2]; [6]): 6.44 | QPatch Emax (human Cav1.2 [2]; comparative examples (Table 6)): 1.4 | Biophysics voltage shift (human Cav1.2 [3]; comparative examples (Table 6)): −4.3 mV

COC(=O)C1=C(C)NC2=C(C(=O)OC2)C1c1ccccc1OC(F)F (single isomer, unassigned) [reference compound]
pEC50 (human Cav1.2 [2]; [6]): 6.29 | QPatch Emax (human Cav1.2 [2]; comparative examples (Table 6)): 1.7 | Biophysics voltage shift (human Cav1.2 [3]; comparative examples (Table 6)): −7.1 mV

CCOC(=O)C1=C(C)NC2=C(C(=O)OC2)C1c1ccccc1C(F)(F)F (single isomer, unassigned) [reference compound]
pEC50 (human Cav1.2 [2]; [6]): 6.03 | QPatch Emax (human Cav1.2 [2]; comparative examples (Table 6)): 1.9

COC(=O)C1=C(C)NC2=C(C(=O)OC2)[C@H]1c1cccc(F)c1CC(F)F [Example 17, (S)-methyl 4-(2-(2,2-difluoroethyl)-3-fluorophenyl)-2-methyl-5-oxo-1,4,5,7-tetrahydrofuro[3,4-b]pyridine-3-carboxylate]
pEC50 (human Cav1.2 [2]; [4]): 6.57 | QPatch Emax (human Cav1.2 [2]): 1.8 | Biophysics voltage shift (human Cav1.2 [3]; [5]): −6.6 mV
